Experimental data published in patent publication US10028992B2, “Methods of treating muscular dystrophy” (BOARD OF REGENTS OF THE NEVADA SYSTEM OF HIGHER EDUCATION …, priority 2012, dated 2018).

System: α7 integrin promoter
Test: muscle cell-based assay: α7βgal+/− myoblasts/myotubes, LacZ reporter, β-galactosidase cleavage of FDG
Design: species or system mouse; Results in α7+/− β-galactosidase assay: scale not given here
Conditions: Myoblasts
Procedure, shortened: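 Fluorescein generated from FDG by β-galactosidase reports α7 integrin promoter activity in differentiated myoblasts from α7+/− LacZ knock-in pups. Screening hits then went to dose-response, western blotting and a myostatin counterscreen.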

Structure (SMILES) | Results in α7+/− β-galactosidase assay (0.5 uM) | Results in α7+/− β-galactosidase assay (1 uM) | Results in α7+/− β-galactosidase assay (5 uM) | Results in α7+/− β-galactosidase assay (10 uM) | Results in α7+/− β-galactosidase assay (20 uM) | Results in α7+/− β-galactosidase assay (40 uM)
COCCSc1ccccc1C(=O)Nc1cc(C)cc(C)c1 [drawing 595] | −0.06029 | −0.1236 | 0.04359 | 0.2482 | −0.09845 | −0.1003
CC(=O)Nc1ccc(NC(=O)c2cc(=O)c3cc(C)cc(C)c3o2)cc1 [drawing 596] | −0.1173 | −0.07551 | −0.4622 | 0.1321 | −0.5173 | −0.5206
Cc1cccc(Sc2nc(-c3ccccc3)ccc2C#N)c1 [drawing 598] | −0.2243 | −0.2124 | 0.4228 | 0.1696 | −0.08803 | −0.1146
CCC(C)NC(=O)CSc1nnc(COc2ccc(Br)cc2)o1 (stereo not drawn) [drawing 599] | 0.03703 | −0.07 | −0.1163 | 0.4886 | −0.0797 | −0.4672
Cc1ccc(N2C(=O)C3NN=C(C(=O)OCc4ccccc4)C3C2=O)cc1 (stereo not drawn) [drawing 600] | 0.05483 | −0.02931 | −0.09981 | −0.01836 | 0.1359 | −0.03893
Cc1cc([N+](=O)[O-])ccc1NC(=O)C(C)N1CCN(c2ccccn2)CC1 (stereo not drawn) [drawing 601] | 0.08805 | 0.0582 | −0.01841 | −0.03065 | −0.0419 | −0.274
CCc1nc(/C=C2\C(=O)Nc3ccccc32)c[nH]1 [drawing 602] | 0.2737 | 0.07781 | 0.08036 | 0.1565 | 0.1925 | −0.2038
CCOC(=O)C1(Cc2cccc(Cl)c2)CCCN(C(=O)CCSC)C1 (stereo not drawn) [drawing 604] | 0.08932 | −0.00471 | −0.04484 | −0.02503 | −0.06029 | −0.2262
Cc1cccc2c(/N=N/c3ccc(S(=O)(=O)Nc4ccc(Cl)cc4)cc3[N+](=O)[O-])c(O)[nH]c12 [drawing 605] | −0.02621 | −0.05717 | −0.2201 | −0.3043 | −0.4039 | −0.5304
CC(C)c1ccc(OC(=O)c2cccc(S(=O)(=O)N3CCN(C)CC3)c2)cc1 [drawing 606] | −0.02855 | −0.1053 | 0.3741 | −0.02381 | 0.03734 | −0.08446
CC(C)c1ccc(NC(=O)CN2C(=O)c3ccccc3S2(=O)=O)cc1 [drawing 607] | −0.1297 | −0.1704 | 0.367 | −0.05458 | −0.03658 | −0.09806
NC(=O)c1sc2nc3c(cc2c1N)CCC3 [drawing 608] | 0.003482 | 0.04559 | 0.02429 | 0.07579 | 0.3169 | 0.4925
O=C(Nc1ccccc1OC(=O)c1ccc(Cl)cc1)c1ccc(Cl)cc1 [drawing 609] | 0.03104 | 0.01493 | −0.04769 | −0.1879 | 0.6323 | −0.3765
CC(NC(=O)c1ccc(C(C)(C)C)cc1)C(c1cccs1)N1CCOCC1 (stereo not drawn) [drawing 610] | 0.08931 | 0.1802 | 0.07478 | −0.02239 | −0.1131 | −0.1382
CCC(=O)c1ccc(OCC(O)CN2CCOC(C)C2)cc1.O=C(O)C(=O)O (stereo not drawn) [drawing 611] | 0.222 | 0.08832 | −0.02345 | −0.1332 | 0.0354 | 0.02206
CC1CCN(C(CNS(=O)(=O)c2ccccc2)c2ccccc2)CC1 (stereo not drawn) [drawing 612] | 0.05229 | −0.05932 | −0.02531 | −0.1141 | −0.291 | −0.3822
COC(=O)c1ccc(/N=N/c2ccccc2)cc1 [drawing 613] | 0.1047 | 0.17 | −0.07402 | −0.1217 | −0.1237 | −0.2361
CN(CCC1CCCCO1)C(=O)CCc1nnc(CCCCc2ccccc2)o1 (stereo not drawn) [drawing 615] | −0.05982 | −0.07538 | −0.00182 | −0.02349 | 0.02509 | −0.00588
c1ccc(-c2nn[nH]n2)nc1 [drawing 616] | −0.1138 | −0.161 | 0.4758 | −0.06661 | 0.6134 | −0.02456
O=C(N/N=C/c1c[nH]c2ccccc12)c1cc(Cl)ccc1O [drawing 617] | −0.1174 | −0.2374 | 0.2235 | −0.05174 | −0.06378 | −0.0655
O=C(O)C(Cc1ccc(O)cc1)N1C(=O)c2ccccc2C1=O (stereo not drawn) [drawing 619] | 0.1486 | 0.2007 | 0.1591 | −0.04895 | 0.03548 | 0.007087
CCN(CC)C(=O)c1sc2nc(-c3ccc(OC)cc3)cn2c1C [drawing 620] | −0.00349 | −0.01981 | −0.06604 | −0.2175 | −0.4369 | −0.6089
Cc1ccsc1-c1nnc(S)n1C1CCCCC1 [drawing 621] | 0.007736 | 0.002953 | 0.06001 | −0.06828 | −0.1538 | −0.1034
O=C(N[C@@H](Cc1c[nH]c2ccccc12)C(=O)O)C1CCN(S(=O)(=O)c2cccs2)CC1 [drawing 622] | −0.07999 | −0.01966 | −0.1194 | −0.09397 | −0.02534 | −0.04251
COC(=O)Cn1c(=O)c2c(nc3n2CC(C)CN3Cc2ccccc2)n(C)c1=O (stereo not drawn) [drawing 623] | −0.176 | −0.2606 | −0.02637 | −0.1756 | −0.2725 | −0.3826
CCOC(=O)c1cc(C(=O)OCC)c(SCc2ccccc2)nc1O [drawing 624] | −0.1519 | −0.22 | 0.001928 | −0.1374 | −0.174 | −0.1694
Oc1nc2ccccc2nc1-c1c[nH]c2ccccc12 [drawing 625] | −0.1557 | −0.2438 | −0.1427 | −0.1781 | −0.49 | −0.6715
O=C(Nc1cc(-c2nc3ccccc3s2)ccc1Cl)c1ccc2c(c1)OCO2 [drawing 626] | −0.04702 | −0.1444 | 0.02573 | 0.1301 | −0.1679 | −0.4411
